The IC50 is the concentration that inhibits the measured activity by half. A higher IC50 goes with weaker potency. One may read the Ki as a measure of affinity in units of concentration, obtained from inhibition or displacement.

The target in test [1] is T1, Palmitoleoyl-protein carboxylesterase NOTUM (Homo sapiens, UniProt Q6P988).
T1 sequence (Q6P988 whole entry): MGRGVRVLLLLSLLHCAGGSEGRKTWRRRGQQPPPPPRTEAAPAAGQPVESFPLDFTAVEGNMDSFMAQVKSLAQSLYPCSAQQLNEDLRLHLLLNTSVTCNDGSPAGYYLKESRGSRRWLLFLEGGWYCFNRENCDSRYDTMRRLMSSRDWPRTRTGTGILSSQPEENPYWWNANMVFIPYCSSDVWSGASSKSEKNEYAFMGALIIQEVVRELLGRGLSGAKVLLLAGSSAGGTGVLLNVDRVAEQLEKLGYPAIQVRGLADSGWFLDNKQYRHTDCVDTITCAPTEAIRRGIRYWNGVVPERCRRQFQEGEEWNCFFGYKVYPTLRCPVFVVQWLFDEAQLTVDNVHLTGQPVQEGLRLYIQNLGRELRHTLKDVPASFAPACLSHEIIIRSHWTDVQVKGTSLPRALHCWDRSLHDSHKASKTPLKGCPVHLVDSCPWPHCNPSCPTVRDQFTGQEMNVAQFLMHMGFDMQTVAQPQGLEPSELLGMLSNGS
Put plainly: Inhibition of human notum using OTPS as substrate incubated for 16 hrs by fluorescent based assay.

In test [2] the target is T2, Adenosine receptor A3 (Homo sapiens, UniProt P0DMS8).
T2 sequence (P0DMS8 whole entry): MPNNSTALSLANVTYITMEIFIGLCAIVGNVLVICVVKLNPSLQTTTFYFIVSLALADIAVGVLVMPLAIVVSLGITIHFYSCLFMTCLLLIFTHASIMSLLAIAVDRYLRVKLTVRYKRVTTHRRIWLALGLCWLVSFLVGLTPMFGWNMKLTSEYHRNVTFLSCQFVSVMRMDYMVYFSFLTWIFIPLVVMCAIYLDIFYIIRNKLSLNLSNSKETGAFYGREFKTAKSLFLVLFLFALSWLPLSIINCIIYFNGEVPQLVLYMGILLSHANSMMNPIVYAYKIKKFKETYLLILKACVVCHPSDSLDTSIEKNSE
Put plainly: Displacement of [1251]AB-MEC from human A3 receptor assessed as inhibition constant.

Test [3] concerns the target T3, Adenosine receptor A1 (Homo sapiens, UniProt P30542).
T3 sequence (P30542 whole entry): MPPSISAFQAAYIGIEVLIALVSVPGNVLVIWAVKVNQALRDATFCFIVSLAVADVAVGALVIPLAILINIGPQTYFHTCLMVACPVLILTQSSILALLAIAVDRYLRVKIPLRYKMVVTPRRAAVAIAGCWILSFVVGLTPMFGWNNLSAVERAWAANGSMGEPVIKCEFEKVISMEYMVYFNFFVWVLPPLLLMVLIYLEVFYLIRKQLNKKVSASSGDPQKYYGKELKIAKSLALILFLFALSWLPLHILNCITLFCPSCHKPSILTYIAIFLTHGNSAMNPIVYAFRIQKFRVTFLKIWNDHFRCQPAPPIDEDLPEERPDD
Put plainly: Binding affinity to human A1 adenosine receptor assessed as inhibition constant.

Test [4] deals with T2, Adenosine receptor A3. Briefly: Binding affinity to human A3 adenosine receptor assessed as inhibition constant.
Test [5] has as its target T4, Adenosine receptor A2b (Homo sapiens, UniProt P29275).
T4 sequence (P29275 whole entry): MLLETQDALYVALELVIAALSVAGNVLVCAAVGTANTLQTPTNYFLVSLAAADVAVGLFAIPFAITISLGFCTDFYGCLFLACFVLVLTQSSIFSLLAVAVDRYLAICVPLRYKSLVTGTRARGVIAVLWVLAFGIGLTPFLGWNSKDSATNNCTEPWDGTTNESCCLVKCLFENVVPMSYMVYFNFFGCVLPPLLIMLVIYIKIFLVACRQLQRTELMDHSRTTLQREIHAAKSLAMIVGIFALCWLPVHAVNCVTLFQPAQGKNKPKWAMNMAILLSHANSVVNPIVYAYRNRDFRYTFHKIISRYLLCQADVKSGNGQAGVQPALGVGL
Briefly: Inhibition of human A2b adenosine receptor.

The target of test [6] is T4, Adenosine receptor A2b. Put plainly: Displacement of [3H]DPCPX to human A2B adenosine receptor derived from HEK cells assessed as inhibition constant. In general terms: Loss of bound radioactivity is the signal in a displacement assay; it reports binding, not function.

Consider `Cn1c(=O)c2c(ncn2C)n(C)c1=O`, for which, in test [1], it took 19000 nM to reach half-maximal inhibition (IC50).

For `CCCCn1c(=O)c2c(ncn2[C@@H]2O[C@H](C(=O)NC)[C@@H](O)[C@H]2O)n(CCCC)c1=O` [5-(1,3-Dibutyl-2,6-dioxo-1,2,3,6-tetrahydro-purin-7-yl)-3,4-dihydroxy-tetrahydro-furan-2-carboxylic acid methylamide], the Ki in test [2] turned out to be 229 nM.

Regarding `CCCn1c(=O)c2nc(-c3ccc(S(=O)(=O)NCCN(C)C)cc3)[nH]c2n(CCC)c1=O`, the Ki in test [3] was 6.5 nM.

Consider `CC[C@@H]1Cn2c(c3nc(-c4cc(Cl)cc(Cl)c4Cl)nc-3n(C)c2=O)N1`, for which the Ki in test [4] is 0.433 nM.

As to `Cn1cnc2c1c(=O)[nH]c(=O)n2C` [theobromine], inhibition in test [5] was half-maximal at 130000 nM (IC50).

For `CCCn1c(=O)c2nc(C3CC4CC3C3OC43)[nH]c2n(CCC)c1=O` (stereo not drawn) [8-(3-Oxa-tricyclo[3.2.1.0*2,4*]oct-6-yl)-1,3-dipropyl-3,7-dihydro-purine-2,6-dione], the inhibitory constant (Ki) in test [3] was 0.95 nM.

Consider `CCCn1c(=O)c2nc(-c3ccc(OCC(N)=O)cc3O)[nH]c2n(CCC)c1=O`, for which the Ki in test [3] came out at 6.5 nM.

As for `CCCn1c(=O)[nH]c2nc(-c3cnn(Cc4noc(-c5ccc(Cl)cc5)n4)c3)[nH]c2c1=O` [8-(1-((5-(4-chlorophenyl)-1,2,4-oxadiazol-3-yl)methyl)-1H-pyrazol-4-yl)-1-propyl-1H-purine-2,6(3H,7H)-dione], the Ki in test [6] came out at 5.5 nM.

The values are drawn from BindingDB's records for doi:10.1021/jm9604383 (Goethe-University Frankfurt, 2021).
